From PMC8620715, “Biological Activity of Triazolopyrimidine Copper(II) Complexes Modulated by an Auxiliary N-N-Chelating Heterocycle Ligands” (Molecules, 2021)

Key:
S. aureus 25923 = assay: Biofilm formation on polystyrene (crystal violet), MBEC; type: cell-based, Staphylococcus aureus; details: S. aureus 25923, biofilm
Procedure: (§1) The antibacterial assays were carried out using two Gram-negative (Escherichia coli ATCC 25922, Pseudomonas aeruginosa ATCC 27853) and two Gram-positive (Staphylococcus aureus ATCC 25923, MRSA (meticillin-Resistant S. aureus) 388 (ATCC, American Type Culture Collection) bacteria.
(§2) The method for assessment of biofilm formation on polystyrene microtiter plates was based on previously published protocols. The absorbance at 490 nm was measured with an Apollo LB 911ELISA (Berthold Technologies GmbH & Co. KG, Waltham, MA, USA) reader. The minimal biofilm-eradication concentration (MBEC) was defined as the lowest concentration of antibiotics required to eradicate the biofilm. All experiments were performed in triplicate.

E. coli 25922 = assay: MIC by broth microdilution; type: cell-based, Escherichia coli; details: E. coli 25922, planktonic
Procedure: as §1
The antimicrobial activity of the two complexes (1) and (2) was assessed using their minimum inhibitory concentration (MIC) by the broth microdilution method, as previously described by the Clinical and Laboratory Standard Institute (CLSI; M07-A9 document). A broth microdilution assay was performed in sterile 96-well plates using Muller-Hinton broth (Scharlau; MHB). The compounds solubilized in […] (1,000 μg/mL) were serially diluted in 90 μL MHB, in concentrations ranging between 500 and 0.97 μg/mL. Overnight cultures were used to prepare suspension in phosphate-buffered saline (pH 7.0) to match a 0.5 McFarland density. The bacterial suspensions were further diluted to 1:100 by adding 0.1 mL of bacterial suspension to 9.9 mL of MHB. A volume of 10 μL of this dilution was added to each well of columns 1–10, containing different concentrations of the tested compounds. […] Additionally, 10 μL of the diluted bacterial suspension was added in column 11 (the growth control). A volume of 100 μL MHB was added to the microtiter plates’ sterility control wells (column 12). After inoculation, the plates were incubated at 35 ± 2 °C for 18 h. Growth was measured as light absorbance (620 nm) in comparison to an uninoculated well (negative control). It was detected using a microtiter plate reader (Apollo LB 911ELISA (Berthold Technologies GmbH & Co. KG, Waltham, MA, USA)). The MIC of each compound was defined as the lowest concentration required to inhibit bacterial growth.

λ-DNA/EB adduct = assay: Quenching of fluorescence of λ-DNA/ethidium bromide adduct; type: binding, bacteriophage lambda; details: λ-DNA pre-treated with EB, pH 8
Procedure: The binding of complexes (1) and (2) to DNA was assayed by monitoring the quenching of fluorescence emitted by λ-DNA/ethidium bromide (EB) adduct (λexcit = 510 nm, maximum emission at λem = 601 nm) in the presence of different concentrations of the tested compounds [68, 69]. The fluorescence spectra were recorded in the range of 550–750 nm using a Thermo Fischer Scientific Varioskan Flash spectral scanning multimode reader (Vantaa, Finland). The spectra were recorded in suitable plates using 5 nm excitation and emission slits for all measurements.
The binding of compounds to λ-DNA was assayed by monitoring the quenching of fluorescence emitted by λ-DNA/ethidium bromide (EB) adduct (λexcit = 510, maximum emission at λem = 601). The λ-DNA solution was added to the EB solution, prepared in the same buffer, then increasing concentrations of compounds were added to EB-DNA [52, 70]. The fluorescence spectra were recorded in the range of 550–750 nm using a Thermo Fischer Scientific Varioskan Flash spectral scanning multimode reader (Vantaa, Finland). The spectra were recorded in suitable plates using 5 nm excitation and emission slits for all measurements.

BJ cells = assay: Cell morphology by fluorescence microscopy (phalloidin staining), BJ cells; type: cell-based, human; details: 24 h
Procedure: The morphological changes induced by the treatment of the BJ and B16 cell lines with the tested compounds at two different concentrations (2.5 and 10 µg/mL) applied for 24 h were investigated by fluorescence microscopy.
According to the manufacturer protocol, the cytoskeleton actin filaments of BJ and B16 cells were stained with phalloidin-FITC (Sigma-Aldrich, St. Louis, MO, USA). Briefly, cells were washed with PBS (5 min, 3 times), fixed for 5 min with 3% paraformaldehyde, washed three times with PBS, permeabilized with 0.1% Triton X-100 in PBS for 15 min, washed three times with PBS, stained with 20 μg/mL phalloidin-FITC at room temperature for 1 h and rewashed three times with PBS. The cell nucleus was stained with 8 μM of Hoechst 33342 solution for 10 min, washed three times with PBS, and finally, mounted and sealed on glass slides with FluorSave™ Reagent (Merck Millipore, Germany). The fluorescence images were acquired using an Andor DSD2 Confocal Unit (Andor, Ireland), mounted on an epifluorescence microscope, Olympus BX-51 (Olympus, Germany), equipped with a 40x and 100x objective and an appropriate DAPI/Hoechst filter cube (excitation filter 390/40 […], dichroic mirror 405 nm and emission filter 452/45 nm) and GFP/FITC filter cube (excitation filter 466/40 nm, dichroic mirror 488 nm and emission filter 525/54 nm).

P. aeruginosa 27853 = assay: Biofilm formation on polystyrene (crystal violet), MBEC; type: cell-based, Pseudomonas aeruginosa; details: P. aeruginosa 27853, biofilm
Procedure: as §1, §2

| Structure (SMILES) | MBEC (S. aureus 25923) | MIC (E. coli 25922) | fluorescence of λ-DNA/EB adduct on adding complex (λ-DNA/EB adduct) | morphological changes of BJ cells (BJ cells; 10 μg/mL (11.05 µM)) | MBEC (P. aeruginosa 27853) | morphological changes of BJ cells (BJ cells; 2.5 and 10 µg/mL) |
| --- | --- | --- | --- | --- | --- | --- |
| Cc1cc(C)n2ncnc2n1.Cc1cc(C)n2ncnc2n1.Cc1cc(C)n2ncnc2n1.O.[Cu+2].[O-][Cl+3]([O-])([O-])[O-].[O-][Cl+3]([O-])([O-])[O-].c1cnc2c(c1)ccc1cccnc12 [Complex (2), [Cu(phen)(dmtp)2(OH2)](ClO4)2·dmtp] | 0.04 mM | 340 µM | fluorescence intensity decreased | affected the cellular morphology | 0.69 mM |  |
| Cc1cc(C)n2ncnc2n1.Cc1cc(C)n2ncnc2n1.Cc1cc(C)n2ncnc2n1.O.[Cu+2].[O-][Cl+3]([O-])([O-])[O-].[O-][Cl+3]([O-])([O-])[O-].c1ccc(-c2ccccn2)nc1 [Complex (1), [Cu(bpy)(dmtp)2(OH2)](ClO4)2·dmtp] | 0.18 mM | 710 µM | fluorescence intensity decreased |  | 0.71 mM | no effect was observed |
